Each compound was assayed against T1, human kinase Mps-1 (Homo sapiens, UniProt P33981) (assay: Mps-1 kinase assay (HTRF)). Details: lowATP; mean; read-out: Mps1 lowATP mean IC50.
T1 construct: N-terminally GST-tagged human full length recombinant Mps-1 kinase; purchased Invitrogen, Karslruhe, Germany PV4071
T1 sequence (P33981 1-857): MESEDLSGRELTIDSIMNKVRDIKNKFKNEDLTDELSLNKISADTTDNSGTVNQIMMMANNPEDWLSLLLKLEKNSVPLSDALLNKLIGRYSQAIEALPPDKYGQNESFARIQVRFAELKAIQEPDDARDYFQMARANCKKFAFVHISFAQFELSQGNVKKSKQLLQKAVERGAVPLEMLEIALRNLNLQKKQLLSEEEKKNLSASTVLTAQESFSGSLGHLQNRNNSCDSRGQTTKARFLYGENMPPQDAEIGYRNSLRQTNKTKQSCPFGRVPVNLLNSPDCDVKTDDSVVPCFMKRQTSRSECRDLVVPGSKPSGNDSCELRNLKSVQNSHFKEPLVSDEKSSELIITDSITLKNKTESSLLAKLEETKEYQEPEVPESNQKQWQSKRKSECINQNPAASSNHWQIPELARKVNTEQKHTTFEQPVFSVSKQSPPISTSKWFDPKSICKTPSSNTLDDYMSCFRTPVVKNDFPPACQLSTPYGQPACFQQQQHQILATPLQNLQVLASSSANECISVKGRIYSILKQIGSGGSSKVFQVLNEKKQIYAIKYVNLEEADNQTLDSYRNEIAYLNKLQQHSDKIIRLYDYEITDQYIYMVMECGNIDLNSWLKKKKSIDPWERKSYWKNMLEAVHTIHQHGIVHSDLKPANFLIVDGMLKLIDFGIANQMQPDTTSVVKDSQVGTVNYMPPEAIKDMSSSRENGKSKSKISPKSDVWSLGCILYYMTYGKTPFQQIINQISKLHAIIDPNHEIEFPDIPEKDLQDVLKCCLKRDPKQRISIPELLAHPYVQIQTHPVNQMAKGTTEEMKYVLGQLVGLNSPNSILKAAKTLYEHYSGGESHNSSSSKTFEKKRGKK
Assay type: biochemical
Method in brief: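 HTRF readout: EDTA-stopped reactions incubated 1 h with europium anti-phospho(Ser/Thr) antibody and streptavidin-XLent, emission ratio 665/620 nm after 350 nm excitation. Kinase step: compound pre-bound 15 min to ~1 nM GST-Mps-1, then 60 min at 22 °C with ATP and biotin-peptide substrate; inhibition scaled between no-inhibitor (0%) and no-enzyme (100%) controls.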

| SMILES | IC50 [nM] |
| --- | --- |
| O=C(NC1CC1)c1ccc(-c2cnc3c(NCc4ccc(F)cc4)nc4ccccc4n23)cc1 [Example 2-15, N-cyclopropyl-4-{4-[(4-fluorobenzyl)amino]imidazo[1,2-a]quinoxalin-1-yl}benzamide] | 56.3 |
| O=C(NC1CC1)c1ccc(-c2cnc3c(NCCCO)nc4ccc(F)cc4n23)cc1 [Example 2-50, N-cyclopropyl-4-{8-fluoro-4-[(3-hydroxypropyl)amino]imidazo[1,2-a]quinoxalin-1-yl}benzamide] | 154 |
| N#Cc1ccc2c(c1)nc(NCC(O)CO)c1ncc(-c3ccc(C(=O)NC4CC4)cc3)n12 (centres unmarked) [Example 2-222, 4-{7-cyano-4-[(2,3-dihydroxypropyl)amino]imidazo[1,2-a]quinoxalin-1-yl}-N-cyclopropylbenzamide] | 127 |
| CNC(=O)Nc1ccc(-c2cnc3c(NCc4ccnn4C)nc4cc(C#N)ccc4n23)cc1 [Example 2-232, 1-[4-(7-cyano-4-{[(1-methyl-1H-pyrazol-5-yl)methyl]amino}imidazo[1,2-a]quinoxalin-1-yl)phenyl]-3-methylurea] | 1140 |
| CCNc1nc2cc(C)c(C)cc2n2c(-c3ccc(C(=O)NC4CC4)c(Cl)c3)cnc12 [Example 2-185, 2-chloro-N-cyclopropyl-4-[4-(ethylamino)-7,8-dimethylimidazo[1,2-a]quinoxalin-1-yl]benzamide] | 97.3 |
| Cc1cc2nc(NCCO)c3ncc(-c4ccc(C(=O)NC5CC5)c(Cl)c4)n3c2cc1C [Example 2-179, 2-chloro-N-cyclopropyl-4-{4-[(2-hydroxyethyl)amino]-7,8-dimethylimidazo[1,2-a]quinoxalin-1-yl}benzamide] | 130 |

Further compounds by falling IC50, results first:

| IC50 [nM] | SMILES |
| --- | --- |
| 9640 | O=C(NC1CC1)c1ccc(-c2cnc3c(NCCCN4CCCC4=O)nc4cc(F)c(F)cc4n23)cc1Cl [Example 2-125, 2-chloro-N-cyclopropyl-4-(7,8-difluoro-4-{[3-(2-oxopyrrolidin-1-yl)propyl]amino}imidazo[1,2-a]quinoxalin-1-yl)benzamide] |
| 8110 | CNC(=O)Nc1ccc(-c2cnc3c(NCCCN4CCCC4=O)nc4cc(C#N)ccc4n23)cc1 [Example 2-225, 1-[4-(7-cyano-4-{[3-(2-oxopyrrolidin-1-yl)propyl]amino}imidazo[1,2-a]quinoxalin-1-yl)phenyl]-3-methylurea] |
| 539 | O=C(NC1CC1)c1ccc(-c2cnc3c(NCCc4ccc(F)cc4)nc4ccccc4n23)cc1 [Example 2-35, N-cyclopropyl-4-(4-{[2-(4-fluorophenyl)ethyl]amino}imidazo[1,2-a]quinoxalin-1-yl)benzamide] |
| 283 | CNC(=O)Nc1ccc(-c2cnc3c(NCc4cccnc4)nc4cc(C)c(C)cc4n23)cc1 [Example 2-171, 1-(4-{7,8-dimethyl-4-[(pyridin-3-ylmethyl)amino]imidazo[1,2-a]quinoxalin-1-yl}phenyl)-3-methylurea] |
| 50.7 | N#Cc1ccc2c(c1)nc(NCc1cccc(F)c1)c1ncc(-c3ccc(C(=O)NC4CC4)cc3)n12 [Example 2-206, 4-{7-cyano-4-[(3-fluorobenzyl)amino]imidazo[1,2-a]quinoxalin-1-yl}-N-cyclopropylbenzamide] |
| 28.3 | CC(C)CNc1nc2ccc(F)cc2n2c(-c3ccc(C(=O)NC4CC4)cc3)cnc12 [Example 2-55, N-cyclopropyl-4-{8-fluoro-4-[(2-methylpropyl)amino]imidazo[1,2-a]quinoxalin-1-yl}benzamide] |
| 26.7 | CCCCNc1nc2cc(C)c(C)cc2n2c(-c3ccc(C(=O)NC4CC4)c(Cl)c3)cnc12 [Example 2-187, 4-[4-(butylamino)-7,8-dimethylimidazo[1,2-a]quinoxalin-1-yl]-2-chloro-N-cyclopropylbenzamide] |
| 12.4 | CC(C)CNc1nc2ccccc2n2c(-c3ccc(C(=O)NC4CC4)cc3)cnc12 [Example 1-2, N-cyclopropyl-4-(4-isobutylamino-imidazo[1,2-a]quinoxalin-1-yl)-benzamide] |
